Data on four molecules can be found in patent publication US20060115865A1, “Lamotrigine analogs” (priority 2004, published 2006).

For data set [1] the following is noted: cited from earlier work.
Data set [2] deals with anti-lamotrigine antibody. The data set is described as follows: Cross-reactivity of polyclonal antibody with lamotrigine metabolites spiked into human serum. It is filed as binding. The settings on record: metabolite at 500 μg/mL spiked into human serum; polyclonal antisera. The procedure:
A polyclonal antisera is obtained and an assay is performed in order to determine the amount of cross-reactivity of the polyclonal antibody with lamotrigine and lamotrigine metabolites. A known amount of lamotrigine is used to react with an anti-lamotrigine antibody prepared in accordance with the present invention. The known concentration of lamotrigine is used to calculate the amount of cross-reactivity between the antibody preparation and the metabolites as follows: N-methyl (29); N-oxide (30); and N-2 gluronide (31). The percent of cross-reactivity equals 100 times the observed concentration of lamotrigine in μg/mL, which is then divided by the concentration of added metabolites in μg/mL. No cross-reactivity is observed in specimens containing those metabolites. High concentrations of these compounds are spiked into human serum and tested as samples. The metabolites are assayed and compared to control serum (no lamotrigine). Cross reactivity is calculated using the following equation: [formula]

Data set [3] can be described thus: Solubility of 74W86 in common solvents. It is filed as physicochemical. The note with it: most common solvents.
The mark [4] stands for this setting: responders (>50% seizure reduction).

SMILES strings stand for the structures. Where two headings read alike, the source gives them in different places.

For the molecule `Nc1nnc(-c2cccc(Cl)c2Cl)c(N)n1` [lamotrigine, 3,5-diamino-6-(2,3-dichlorophenyl)-1,2,4-triazine], in data set [1] (patients with side effects), the “lamotrigine concentration, range” value is 31 to 60 µmol/L and the median lamotrigine concentration is 62 µmol/L. Further, in data set [1] (setting [4]), the “lamotrigine concentration, range” value is 8 to 60 µmol/L and the median lamotrigine concentration was 31 µmol/L.
On to `C[n+]1nc(-c2cccc(Cl)c2Cl)c(N)nc1N` [N-2 methyl], for which, in data set [2], the cross-reactivity entry is “do not have any cross-reactivity”.
`Nc1nnc(-c2cccc(Cl)c2Cl)c(NC(=O)CCC(=O)O)n1` [74W86]: the solubility result in data set [3] was “poor solubility in most common solvents”.
In the case of `Nc1nc(N)[n+]([O-])nc1-c1cccc(Cl)c1Cl` [N-2 oxide], in data set [2], the cross-reactivity is less than 3%.
